Data from ChEMBL document CHEMBL1122478, “Tricyclic triarylethylene antiestrogens: dibenz[b,f]oxepins, dibenzo[b,f]thiepins, dibenzo[a,e]cyclooctenes, and dibenzo[b,f]thiocins” (1983).

Columns and labels:
Format in all cases: functional
Rattus norvegicus [1] = species on record: Rattus norvegicus; assay: Minimum fully effective dose that prevented implantation of eggs in three out of three rats (MFED) (antifertility)
Mus musculus [2] = assay: Sedative activity measured after ip administration to female mice and checked for their horizontal movement at a dose of 5 mg/Kg
Mus musculus [3] = assay: Sedative activity measured after ip administration to female mice and checked for their horizontal movement at a dose of 1 mg/Kg
Mus musculus [4] = assay: Sedative activity measured after ip administration to female mice and checked for their horizontal movement at a dose of 10 mg/Kg
Rattus norvegicus [5] = species on record: Rattus norvegicus; assay: Dose prevented implantation in two out of 3 rats
Rattus norvegicus [6] = species on record: Rattus norvegicus; assay: Dose prevented implantation in two out of 3 rats;
Rattus norvegicus [7] = species on record: Rattus norvegicus; assay: Dose prevented implantation in two out of three rats

SMILES | MFED (Rattus norvegicus [1]) [mg/kg] | Reduction in movement (Mus musculus [2]) [%] | further results
C=CCOc1ccc2c(c1)SCc1ccccc1/C(CC)=C\2c1ccccc1 | 5 |  | 
C=CCOc1ccc2c(c1)Sc1ccccc1C(CC)=C2c1ccccc1 | >25 | 76 | Reduction in movement (Mus musculus [3]): 48%
CCC1=C(c2ccc(O)cc2)c2ccc(OCC(O)CO)cc2Sc2ccccc21 (centres undefined) | 5 |  | 
CCC1=C(c2ccc(O)cc2)c2ccc(OCCN(C)C)cc2Sc2ccccc21 | 0.5 |  | Reduction in movement (Mus musculus [4]): 45%
C=CCOc1ccc2c(c1)Oc1ccccc1C(CC)=C2c1ccc(O)cc1 | >25 |  | 
C=CCOc1ccc2c(c1)Sc1ccccc1C(CC)=C2c1ccc(O)cc1 | 5 |  | 
CCC1=C(c2ccc(O)cc2)c2ccc(OCCN(C)C)cc2Oc2ccccc21 | 10 | 70 | 
CCC1=C(c2ccccc2)c2ccc(OCC(O)CO)cc2Oc2ccccc21 (centres undefined) | 10 |  | 
C=CCOc1ccc2c(c1)Oc1ccccc1C(CC)=C2c1ccccc1 | >25 |  | 
CCC1=C(c2ccccc2)c2ccc(O)cc2Sc2ccccc21 | >5 | 60 | Reduction in movement (Mus musculus [3]): 34%; Reduction in movement (Mus musculus [4]): 72%
CC/C1=C(\c2ccccc2)c2ccc(OCCN(C)C)cc2SCc2ccccc21 | 0.5 |  | 
CCC1=C(c2ccc(O)cc2)c2ccc(OCC(O)CO)cc2Oc2ccccc21 (centres undefined) | 25 | 61 | Dose (Rattus norvegicus [5]): 10 mg/kg
C=CCOc1ccc2c(c1)SCc1ccccc1/C(CC)=C\2c1ccc(O)cc1 | 25 |  | Dose (Rattus norvegicus [5]): ~10 mg/kg
CC/C1=C(\c2ccccc2)c2ccc(OCC(O)CO)cc2SCc2ccccc21 (centres undefined) |  |  | Dose (Rattus norvegicus [6]): 5 mg/kg
CC/C1=C(\c2ccc(O)cc2)c2ccc(OCCN(C)C)cc2SCc2ccccc21 | 0.5 | 61 | 
CCC1=C(c2ccccc2)c2ccc(OCCN(C)C)cc2Oc2ccccc21 | 25 |  | Dose (Rattus norvegicus [7]): ~10 mg/kg
CCC1=C(c2ccccc2)c2ccc(OCC(O)CO)cc2Sc2ccccc21 (centres undefined) |  | 84 | Dose (Rattus norvegicus [5]): ~25 mg/kg; Reduction in movement (Mus musculus [3]): 33%
CC/C1=C(\c2ccc(O)cc2)c2ccc(OCC(O)CO)cc2SCc2ccccc21 (centres undefined) | 5 | 62 | 
CCC1=C(c2ccccc2)c2ccc(OCCN(C)C)cc2Sc2ccccc21 | 5 |  | Dose (Rattus norvegicus [5]): ~1 mg/kg; Reduction in movement (Mus musculus [3]): 49%; Reduction in movement (Mus musculus [4]): 46%
CN(C)CCCN1c2ccccc2Sc2ccc(Cl)cc21 [CHLORPROMAZINE] |  |  | Reduction in movement (Mus musculus [3]): 73%
CC/C(=C(\c1ccccc1)c1ccc(OCCN(C)C)cc1)c1ccccc1 [TAMOXIFEN] | 0.1 |  | 
